# Like-named read-outs stand apart in the source and are kept apart here.
# Experiments:
# [1] = test system: dexamethasone-induced mouse osteoporosis model; assay: Anti-osteoporotic effect, femur micro-CT and histology; type: in vivo, C57BL/6 mice; conditions: 4 weeks
# Description: (§1) To determine the anabolic effect of orally administered TRP/LDA/DA-DM on GC-induced osteoporosis, 9-week-old female C57BL/6 mice were randomly divided into 6 groups (n=10 per group): Control group (normal) (SC injection of normal saline once daily); Control group (DEX) (SC injection of 0.022 mg/kg DEX once daily); TRP-SC (0.02) (SC injection of 0.02 mg/kg TRP dissolved in physiological saline containing 0.022 mg/kg DEX once daily); TRP-oral (0.4) (SC injection of 0.022 mg/kg DEX dissolved in water with 0.4 mg/kg TRP orally once daily); RP (1:5:7)-15 (0.4) (once daily oral administration of TRP (1:5:7)-15 equivalent to 0.4 mg/kg TRP with SC injection of 0.022 mg/kg DEX); and TRP (1:5:7)-15 (0.8) (once daily oral administration of TRP (1:5:7)-15 equivalent to 0.8 mg/kg TRP with SC injection of 0.022 mg/kg DEX). Blood samples were collected for biochemical analysis 4 weeks after treatment.
# In addition, femurs from 10 mice in each group were collected and fixed in 4% paraformaldehyde for bone density and histomorphometric analysis. The trabecular bone microstructure of the left femur was investigated using a Quantum GX micro-computed tomography (micro-CT) imaging system (PerkinElmer, Hopkinton, MA, USA) located at the Korea Institute of Basic Science (Gwangju, Korea). X-ray source settings included a voltage of 90 kV and a current of 88 uA, with a field of view of 10 mm (voxel size, 20 μm; scan time, 4 min). Three-dimensional (3D) images were obtained with 3D Viewer, an existing software in Quantum GX, and the resolution was set to 4.5 μm. After scanning, the structural parameters of the trabecular bone were analyzed using Analyze 12.0 software (Analyze Direct, Overland Park, KS, USA).
# For histological observations, formalin-fixed femurs were […] in 10% ethylenediaminetetraacetic acid (EDTA) and dehydrated by passing through a graded ethanol series. Calcified femurs were then embedded in paraffin wax, cut into 5-μm-thick sections, and stained with hematoxylin and eosin (H&E). Histological sections were observed under an optical microscope (Bx41; Olympus, Tokyo, Japan), and photographs were taken focusing on the central portion of the growth plate.
# [2] = test system: dexamethasone-induced mouse osteoporosis model; assay: Serum bone formation and resorption markers and calcium; type: in vivo, C57BL/6 mice
# Description: as §1
# After the final treatment once daily, serum samples were collected from mouse whole blood by centrifugation at 2000×g for 20 minutes. Then, the serum levels of osteocalcin, procollagen I N-terminal pro-peptide (PINP), and C-terminal cross-linked telopeptide of type I collagen (CTx) in each sample were determined according to the manufacturer's instructions using the Mouse Osteocalcin ELISA kit (LifeSpan BioSciences, Inc., Seattle, WA, USA), Rat/Mouse PINP EIA kit (Immunodiagnostic Systems Holdings Ltd., Tyne & Wear, UK), and RatLaps™ CTx-I EIA (Immunodiagnostic Systems Holdings Ltd.) was used to confirm each. In addition, the serum calcium level was confirmed through a colorimetric assay at 560 nm (Sigma-Aldrich).
# [3] = Particle size, PDI and zeta potential (dynamic light scattering) and TEM; type: physicochemical; conditions: dispersed in deionized water, 25° C.
# Description: The characterization of the secondary structure of RP/LDA/DA-DM was confirmed by […] of TRP, TRP-DM, TRP/LDA/DA, and TRP/LDA/DA-DM, using 10 µM of the complex in water at 20° C. Measurements were made in the 180 to 260 nm range on a JASCO spectropolarimeter (Jasco Inc., Easton, MD, USA) using a 10 mm cuvette. All spectra were background-corrected and calculated in units of average residual ellipticity. This represents an average of 10 scan values. The optimized TRP/LDA/DA-DM [i.e., TRP (1:5:7)-15] was also characterized for average particle size, polydispersity index (PDI), and zeta potential using a dynamic light scattering analyzer (Malvern Zetasizer Nano ZS90; Malvern Instruments, Malvern, UK) at 25° C. TRP/LDA/DA-DM was dispersed in deionized water and sonicated for 1 min to minimize multi-scattering effects. In addition, morphological evaluation of the TRP formulation was performed by transmission electron microscopy (TEM). The diluted dispersion was placed on a copper grid, excess fluid was removed using filter paper, and negative staining was performed with a 2% aqueous solution of phosphortungstic acid. The prepared grids were observed by high-resolution TEM (HRTEM; JEM-200; JEOL, Tokyo, Japan).
# [4] = Oral absorption: plasma TRP pharmacokinetics; type: in vivo, SD mice; conditions: SD, mouse; for AUC(0-inf) / AUC(0-t) / Cmax / Tmax / half-life: single dose, n=5
# Description: The oral absorption of TRP/LDA/DA-DM in mice was evaluated by determining the effectiveness of electrostatic complexes of TRP with LDA and DA and micellar formulations using DM. After fasting overnight, SD mice were orally administered 400 μL of TRP-Oral (1.6) (1.6 mg/kg TRP dissolved in water) or TRP (1:5:7)-15 (1.6) (equivalent to 1.6 mg/kg TRP). In addition, animals were injected subcutaneously with 200 μL of TRP-SC (0.04) (0.04 mg/kg TRP dissolved in physiological saline) to evaluate the relative oral bioavailability. Blood samples (250 μL) were collected in heparinized tubes (lithium heparin) from a cannulated femoral vein at specified time points (0, 0.167, 0.5, 1, 1.5, 2, 3, 4, 6 hours). Finally, plasma was separated by centrifugation (2500×g, 15 min, 4° C.) and stored at […] until analysis.
# The plasma drug concentration of each sample was determined by UPLC-MS/MS. To construct a standard calibration curve, 180 μL of blank plasma was transferred to a tube, and then 10 μL of TRP at concentrations of 100, 50, 25, 10, 5, 2.5, 1, and 0 (blank) ng/ml was added to the blank plasma. To measure plasma drug concentrations after drug administration, 180 μL of mouse plasma samples at different time points were transferred to another tube, and then 10 μL hPTH (1-38) aqueous solution (100 ng/ml) (as an internal standard [IS]) was added to the TRP and blank plasma or drug-administered plasma samples. The samples were then precipitated by adding 200 μL acetonitrile containing 5% ammonium hydroxide. The precipitated sample was further diluted with 1 mL of water and centrifuged at 4° C. for 15 min at 4,000 rpm. The supernatant was extracted using the solid phase extraction (SPE) method and an Oasis® HLB uElution 96-well plate (Waters Corporation, Milford, MA, USA). Briefly, a 96-well plate was conditioned with 200 μL of methanol and then equilibrated with 200 μL of water. Four 350 μL aliquots of the supernatant were then added to each Oasis HLB uElution well. After the addition of standards or samples, the wells were washed with 200 μL of water containing 5% methanol. Then, TRP and IS were eluted with 25 μL of acetonitrile:water:trifluoroethanol:trifluoroacetic acid (60:34:5:1, v/v/v/v) mixture in two sequential aliquots. After further dilution of the eluate with 50 μL of water, 10 μL was injected into a UPLC system (Waters ACQUITY UPLC, Waters Corporation) equipped with an ACQUITY UPLC Peptide BEH C18 column (2.1×50 mm, 1.7 μm, 300 Å, Waters Corporation). The sample was placed at a low temperature of 6° C., and the column temperature was maintained at 60° C. during the analysis. Mobile phase A is composed of 0.5% (v/v) formic acid in water, and mobile phase B is composed of acetonitrile. TRP and IS were eluted at a gradient flow rate of 0.3 mL/min, where mobile phase A was equal to 85% (initial), 85% (0.8 min), 70% (1.2 min), 70% (2.2 min), 65% (2.7 min), 10% (3.0 min), 10% (4.0 min), 85% (5 min), and 85% (5 min). For ionization, a mass spectrometer (Xevo™ TO-S; Waters Corporation) was used in positive ion multiple reaction monitoring mode with electrospray voltage, source temperature, desolvation temperature, and desolvation gas flow rate of 3.0 kV, 150° C., 500° C., and 800 L/h, respectively. Quantification was performed with the transition of m/z 589.40→656.40 at 45 V cone voltage and 13 eV collision energy for TRP and m/z 744.20→855.50 at 20 V cone voltage and 20 eV collision energy for IS.
# [5] = SC 0.022 mg/kg DEX once daily, 4 weeks
# [6] = SC 0.02 mg/kg TRP once daily, 4 weeks
smiles,measurement,setting,value
"C[C@@H]1C[C@H]2[C@@H]3CCC4=CC(=O)C=C[C@]4(C)[C@@]3(F)[C@@H](O)C[C@]2(C)[C@@]1(O)C(=O)CO [DEX, dexamethasone]",BMD of the total femur,[1]; SC 0.022 mg/kg DEX once daily,123 ± 7.92 mg/mL
same,SMI change compared to the control (normal) group,[1]; SC 0.022 mg/kg DEX once daily,−21.1%
same,Tb.Th change compared to the control (normal) group,[1]; SC 0.022 mg/kg DEX once daily,−7.98%
same,serum CTx increase compared to the control (normal) group,[2]; [5],48.9%
same,serum PINP reduction compared to the control (normal) group,[2]; [5],26.0%
"CCCCCCCCCCCCO[C@@H]1O[C@H](CO)[C@@H](O[C@H]2O[C@H](CO)[C@@H](O)[C@H](O)[C@H]2O)[C@H](O)[C@H]1O [DM, n-dodecyl-β-D-maltoside]",Particle size,[3],7.43 nm
same,Polydispersity index (PDI),[3],0.045
same,Zeta potential,[3],−0.260 mV
"CC[C@H](C)[C@H](NC(=O)[C@H](CCC(=O)O)NC(=O)[C@H](CO)NC(=O)[C@@H](NC(=O)[C@@H](N)CO)C(C)C)C(=O)N[C@@H](CCC(N)=O)C(=O)N[C@@H](CC(C)C)C(=O)N[C@@H](CCSC)C(=O)N[C@@H](Cc1cnc[nH]1)C(=O)N[C@@H](CC(N)=O)C(=O)N[C@@H](CC(C)C)C(=O)NCC(=O)N[C@@H](CCCCN)C(=O)N[C@@H](Cc1cnc[nH]1)C(=O)N[C@@H](CC(C)C)C(=O)N[C@@H](CC(N)=O)C(=O)N[C@@H](CO)C(=O)N[C@@H](CCSC)C(=O)N[C@@H](CCC(=O)O)C(=O)N[C@@H](CCCN=C(N)N)C(=O)N[C@H](C(=O)N[C@@H](CCC(=O)O)C(=O)N[C@@H](Cc1c[nH]c2ccccc12)C(=O)N[C@@H](CC(C)C)C(=O)N[C@@H](CCCN=C(N)N)C(=O)N[C@@H](CCCCN)C(=O)N[C@@H](CCCCN)C(=O)N[C@@H](CC(C)C)C(=O)N[C@@H](CCC(N)=O)C(=O)N[C@@H](CC(=O)O)C(=O)N[C@H](C(=O)N[C@@H](Cc1cnc[nH]1)C(=O)N[C@@H](CC(N)=O)C(=O)N[C@@H](Cc1ccccc1)C(=O)O)C(C)C)C(C)C [TRP, Human PTH (1-34) acetate]",bioavailability,"[4]; Oral, 1.6 mg/kg TRP, relative to SC 0.04 mg/kg",0.559 ± 0.293%
same,AUC(0-inf),"[4]; Oral, 1.6 mg/kg TRP",0.296 ± 0.0189 ng·h/mL
same,AUC(0-t),"[4]; Oral, 1.6 mg/kg TRP",0.135 ± 0.0704 ng·h/mL
same,Cmax,"[4]; Oral, 1.6 mg/kg TRP",0.155 ± 0.0572 ng/mL
same,Tmax,"[4]; Oral, 1.6 mg/kg TRP",78 ± 16.2 min
same,half-life,"[4]; Oral, 1.6 mg/kg TRP",43.2 ± 10.8 min
same,bioavailability,"[4]; SC, 0.04 mg/kg TRP (reference), read-out: Relative bioavailability",100%
same,AUC(0-inf),"[4]; SC, 0.04 mg/kg TRP",0.752 ± 0.0269 ng·h/mL
same,AUC(0-t),"[4]; SC, 0.04 mg/kg TRP",0.601 ± 0.12 ng·h/mL
same,Cmax,"[4]; SC, 0.04 mg/kg TRP",0.807 ± 0.135 ng/mL
same,Tmax,"[4]; SC, 0.04 mg/kg TRP",30 min
same,half-life,"[4]; SC, 0.04 mg/kg TRP",24 min
same,"trabecular bone microarchitecture, 3D micro-CT image of the femur","[1]; SC 0.02 or oral 0.4 and 0.8 mg/kg TRP, versus control (DEX) and TRP-Oral (0.4)",denser trabecular bone microarchitecture
same,"trabecular bone, H&E-stained histology of distal femora","[1]; SC 0.02 or oral 0.4 or 0.8 mg/kg TRP, versus control (DEX) and TRP-Oral (0.4)",increased structural integrity and denser trabecular bone microarchitecture
same,BMD higher than the DEX group,[1]; SC 0.02 mg/kg TRP once daily,29.4%
same,BV/TV higher than the control (DEX) group,[1]; SC 0.02 mg/kg TRP once daily,13.2%
same,Tb. Sp lower than the control (DEX) group,[1]; SC 0.02 mg/kg TRP once daily,17.4%
same,Tb.N higher than the control (DEX) group,[1]; SC 0.02 mg/kg TRP once daily,2.8%
same,Tb.Th higher than the control (DEX) group,[1]; SC 0.02 mg/kg TRP once daily,45.2%
same,BMD higher than the control (DEX) group,[1]; oral 0.4 mg/kg TRP once daily,did not produce a significant improvement
same,PINP higher compared to the control (DEX) group,[2]; [6],1.19 times
same,serum osteocalcin level higher than TRP-oral (0.4) group,[2]; [6],9.68%
same,serum osteocalcin level higher than control group (DEX),[2]; [6],28.2%
same,serum osteocalcin level higher than control group (normal),[2]; [6],18.2%
same,"serum calcium levels, maximum increase compared to the control (normal) group","[2]; SC 0.02 mg/kg TRP, at 6 hours, day 28",21.4%
same,PINP secretion increase compared to DEX-treated mice only,"[2]; oral 0.4 mg/kg TRP once daily, 4 weeks",not recovered

# — patent publication US20250367266A1, “ORAL PHARMACEUTICAL COMPOSITION FOR PREVENTION OR TREATMENT OF OSTEOPOROSIS CONTAINING TERIPARATIDE AND METHOD FOR PREPARATION THEREOF” (ICURE BNP CO., LTD., priority 2022, published 2025)
